Measured values: patent US6544931B1, “Substituted heteroaryloxyacetanilides and their use as herbicides” (Bayer Aktiengesellschaft, priority 1999, dated 2003)
Like-named read-outs stand apart in the source and are kept apart here.

What was measured:
Alopecurus = experiment: Pre-emergence test/greenhouse; type: in vivo; conditions: 500 g of ai/ha, after three weeks
Method: (§1) Solvent: 5 parts by weight of acetone
(§2) Emulsifier: 1 part by weight of alkylaryl polyglycol ether
(§3) To produce a suitable preparation of active compound, 1 part by weight of active compound is mixed with the stated amount of solvent, the stated amount of emulsifier is added and the concentrate is diluted with water to the desired concentration.
(§4) Seeds of the test plants are sown in normal soil. After about 24 hours, the soil is sprayed with the preparation of active compound such that the particular amount of active compound desired is applied per unit area. The concentration of the spray liquor is chosen so that the particular amount of active compound desired is applied in 1000 litre of water per hectare.
(§5) After three weeks, the degree of damage to the plants is rated in % damage in comparison to the development of the untreated controls.
(§6) 0%=no effect (like untreated control)

Amaranthus [1] = experiment: Pre-emergence test/greenhouse; type: in vivo; conditions: after three weeks
Method: as §1, §2, §3, §4, §5, §6

Digitaria = experiment: Pre-emergence test/greenhouse; type: in vivo; conditions: 500 g of ai/ha, after three weeks
Method: as §1, §2, §3, §4, §5, §6

Eriochloa = experiment: Pre-emergence test/greenhouse; type: in vivo; conditions: 500 g of ai/ha, after three weeks
Method: as §1, §2, §3, §4, §5, §6

Setaria [2] = experiment: Pre-emergence test/greenhouse; type: in vivo; conditions: after three weeks
Method: as §1, §2, §3, §4, §5, §6

Wheat = experiment: Pre-emergence test/greenhouse; type: in vivo; conditions: 500 g of ai/ha, after three weeks, crop plant
Method: as §1, §2, §3, §4, §5, §6

weeds [3] = experiment: Pre-emergence test; type: in vivo; conditions: result in words
Method: as §1, §2, §3, §4, §5, §6

Amaranthus [4] = experiment: Post-emergence test/greenhouse; type: in vivo; conditions: after three weeks
Method: as §1, §2, §3
(§7) Test plants which have a height of 5 to 15 cm are sprayed with the preparation of active compound such that the particular amounts of active compound desired are applied per unit area. The concentration of the spray liquor is chosen so that the particular amounts of active compound desired are applied in 1000 l of water/ha.
(§8) After three weeks, the degree of damage to the plants is rated in % damage in comparison to the development of the untreated control.
as §6

Galium = experiment: Post-emergence test/greenhouse; type: in vivo; conditions: after three weeks
Method: as §1, §2, §3, §7, §8, §6

Setaria [5] = experiment: Post-emergence test/greenhouse; type: in vivo; conditions: after three weeks
Method: as §1, §2, §3, §7, §8, §6

Sinapis [6] = experiment: Post-emergence test/greenhouse; type: in vivo; conditions: after three weeks
Method: as §1, §2, §3, §7, §8, §6

weeds [7] = experiment: Post-emergence test; type: in vivo; conditions: result in words
Method: as §1, §2, §3, §7, §8, §6

[8] = logP by HPLC on reversed-phase column (EEC directive 79/831 Annex V.A8); type: physicochemical
Method: The lopP values given in Table 1 were determined in accordance with EEC directive 79/831 Annex V.A8 by HPLC (High Performance Liquid Chromatography) on a reversed-phase column (C 18). Temperature: 43° C. (a) Mobile phases for the determination in the acidic range: 0.1% aqueous phosphoric acid, acetonitrile; linear gradient of 10% acetonitrile to 90% acetonitrile—corresponding data in Table 1 are labelled a). Calibration was carried out using unbranched alkan-2-ones (with 3 to 16 carbon atoms) whose logP values are known (determination of the logP values by the retention times using linear interpolation between two successive alkanones).

Cotton = experiment: Pre-emergence test/greenhouse; type: in vivo; conditions: 500 g of ai/ha, after three weeks, crop plant
Method: as §1, §2, §3, §4, §5, §6

Lolium = experiment: Pre-emergence test/greenhouse; type: in vivo; conditions: 500 g of ai/ha, after three weeks
Method: as §1, §2, §3, §4, §5, §6

Maize = experiment: Pre-emergence test/greenhouse; type: in vivo; conditions: after three weeks, crop plant
Method: as §1, §2, §3, §4, §5, §6

Echinochloa = experiment: Pre-emergence test/greenhouse; type: in vivo; conditions: 500 g of ai/ha, after three weeks
Method: as §1, §2, §3, §4, §5, §6

Sugar beet = experiment: Pre-emergence test/greenhouse; type: in vivo; conditions: 500 g of ai/ha, after three weeks, crop plant
Method: as §1, §2, §3, §4, §5, §6

Ipomoea = experiment: Post-emergence test/greenhouse; type: in vivo; conditions: 500 g of ai/ha, after three weeks
Method: as §1, §2, §3, §7, §8, §6

Avena fatua [9] = experiment: Pre-emergence test/greenhouse; type: in vivo; conditions: 500 g of ai/ha, after three weeks
Method: as §1, §2, §3, §4, §5, §6

Avena fatua [10] = experiment: Post-emergence test/greenhouse; type: in vivo; conditions: 500 g of ai/ha, after three weeks
Method: as §1, §2, §3, §7, §8, §6

Sinapis [11] = experiment: Pre-emergence test/greenhouse; type: in vivo; conditions: 500 g of ai/ha, after three weeks
Method: as §1, §2, §3, §4, §5, §6

Matricaria = experiment: Pre-emergence test/greenhouse; type: in vivo; conditions: 125 g of ai/ha, after three weeks
Method: as §1, §2, §3, §4, §5, §6

Veronica = experiment: Pre-emergence test/greenhouse; type: in vivo; conditions: 125 g of ai/ha, after three weeks
Method: as §1, §2, §3, §4, §5, §6

[12] = reversed-phase HPLC column (C 18); a) acidic range: 0.1% aqueous phosphoric acid, acetonitrile gradient, HPLC C 18, 43° C., read-out: logP

## CC(C)(C)N(C(=O)COc1nnc(C(F)(F)F)s1)c1ccc(F)cc1 [Example 7]
Alopecurus
  degree of damage, Alopecurus: 90%
Amaranthus [1]; 500 g of ai/ha
  degree of damage, Amaranthus: 95%
Digitaria
  degree of damage, Digitaria: 100%
Eriochloa
  degree of damage, Eriochloa: 100%
Setaria [2]; 500 g of ai/ha
  degree of damage, Setaria: 100%
Wheat
  degree of damage, Wheat: 0%
Weeds [3]
  activity against weeds: strong activity
Amaranthus [4]; 1000 g of ai/ha
  degree of damage, Amaranthus: 80%
Galium; 1000 g of ai/ha
  degree of damage, Galium: 95%
Setaria [5]; 1000 g of ai/ha
  degree of damage, Setaria: 80%
Sinapis [6]; 1000 g of ai/ha
  degree of damage, Sinapis: 80%
Weeds [7]
  activity against weeds: strong activity
other
  melting point: 85 °C

## C#CCN(C(=O)COc1nnc(C(F)(F)F)s1)c1cccc(C(F)(F)F)c1 [Example 3]
[8]; [12]
  chromatographic logP: 3.45
Amaranthus [1]; 500 g of ai/ha
  degree of damage, Amaranthus: 100%
Cotton
  degree of damage, Cotton: 0%
Eriochloa
  degree of damage, Eriochloa: 95%
Lolium
  degree of damage, Lolium: 100%
Maize; 500 g of ai/ha
  degree of damage, Maize: 0%
Setaria [2]; 500 g of ai/ha
  degree of damage, Setaria: 100%
Weeds [3]
  activity against weeds: strong activity
Amaranthus [4]; 2000 g of ai/ha
  degree of damage, Amaranthus: 100%
Galium; 2000 g of ai/ha
  degree of damage, Galium: 90%
Setaria [5]; 2000 g of ai/ha
  degree of damage, Setaria: 95%
Sinapis [6]; 2000 g of ai/ha
  degree of damage, Sinapis: 100%
Weeds [7]
  activity against weeds: strong activity

## C#CCN(C(=O)CO)c1ccc(F)cc1 [III-2, N-(4-fluorophenyl)-N-(2-propinyl)-2-hydroxyacetamide]
other
  melting point: 57 °C

## CC(C)(C)N(C(=O)CO)c1ccc(Cl)cc1 [III-1, N-(t-butyl)-N-(4-chlorophenyl)-2-hydroxyacetamide]
[8]; reversed-phase HPLC column (C 18), pH=2.3, read-out: logP (at pH=2.3)
  chromatographic logP: 2.54

## CC(C)(C)N(C(=O)COc1nnc(C(F)(F)F)s1)c1cccc(Cl)c1 [Example 9]
Echinochloa
  degree of damage, Echinochloa: 95%
Maize; 500 g of ai/ha
  degree of damage, Maize: 0%
Setaria [2]; 500 g of ai/ha
  degree of damage, Setaria: 100%
Sugar beet
  degree of damage, Sugar beet: 0%
Weeds [3]
  activity against weeds: strong activity
Galium; 500 g of ai/ha
  degree of damage, Galium: 90%
Ipomoea
  degree of damage, Ipomoea: 90%
Setaria [5]; 500 g of ai/ha
  degree of damage, Setaria: 70%
Weeds [7]
  activity against weeds: strong activity
other
  melting point: 84 °C

## CC(C)(C)N(C(=O)COc1nnc(C(F)(F)F)s1)c1ccc(Cl)cc1 [Example 1, N-(t-butyl)-N-(4-chlorophenyl)-2-(5-trifluoromethyl-1,3,4-thiadiazol-2-yl-oxy)-acetamide]
Alopecurus
  degree of damage, Alopecurus: 80%
Avena fatua [9]
  degree of damage, Avena fatua: 80%
Echinochloa
  degree of damage, Echinochloa: 95%
Maize; 500 g of ai/ha
  degree of damage, Maize: 0%
Setaria [2]; 500 g of ai/ha
  degree of damage, Setaria: 100%
Weeds [3]
  activity against weeds: strong activity
Avena fatua [10]
  degree of damage, Avena fatua: 80%
Galium; 500 g of ai/ha
  degree of damage, Galium: 90%
Ipomoea
  degree of damage, Ipomoea: 90%
Setaria [5]; 500 g of ai/ha
  degree of damage, Setaria: 90%
Weeds [7]
  activity against weeds: strong activity
other
  melting point: 82 °C

## C#CCN(C(=O)COc1nc2ccccc2o1)c1ccc(F)cc1 [Example 6]
Amaranthus [1]; 500 g of ai/ha
  degree of damage, Amaranthus: 100%
Setaria [2]; 500 g of ai/ha
  degree of damage, Setaria: 100%
Sinapis [11]
  degree of damage, Sinapis: 95%
Weeds [3]
  activity against weeds: strong activity
Amaranthus [4]; 500 g of ai/ha
  degree of damage, Amaranthus: 90%
Galium; 500 g of ai/ha
  degree of damage, Galium: 90%
Setaria [5]; 500 g of ai/ha
  degree of damage, Setaria: 90%
Weeds [7]
  activity against weeds: strong activity
other
  melting point: 138 °C

## C#CCN(C(=O)CCl)c1ccc(F)cc1 [IV-2, N-(4-fluorophenyl)-N-(2-propinyl)-2-chloroacetamide]
[8]
  logP: logP = 2.69^a)

## CC(C)(C)N(C(=O)CCl)c1ccc(Cl)cc1 [IV-1, N-(t-butyl)-N-(4-chlorophenyl)-2-chloroacetamide]
[8]; reversed-phase HPLC column (C 18), pH=2.5, read-out: logP (at pH=2.5)
  chromatographic logP: 3.34

## C#CCN(C(=O)COc1nnc(C(F)(F)F)s1)c1ccc(F)cc1 [Example 4]
[8]; [12]
  chromatographic logP: 2.97
Amaranthus [1]; 125 g of ai/ha
  degree of damage, Amaranthus: 100%
Maize; 125 g of ai/ha
  degree of damage, Maize: 0%
Matricaria
  degree of damage, Matricaria: 100%
Setaria [2]; 125 g of ai/ha
  degree of damage, Setaria: 100%
Veronica
  degree of damage, Veronica: 100%
Weeds [3]
  activity against weeds: strong activity
Amaranthus [4]; 2000 g of ai/ha
  degree of damage, Amaranthus: 95%
Galium; 2000 g of ai/ha
  degree of damage, Galium: 90%
Setaria [5]; 2000 g of ai/ha
  degree of damage, Setaria: 90%
Sinapis [6]; 2000 g of ai/ha
  degree of damage, Sinapis: 95%
Weeds [7]
  activity against weeds: strong activity
